# Patent publication US11739074B2, “Ras inhibitors” (Revolution Medicines, Inc., priority 2019, dated 2023)
# Like-named read-outs stand apart in the source and are kept apart here.
# Columns and labels:
# [1] = ester bond, EDCI/HOBt/DIPEA, DCM, 16.0 h
# AsPC-1 (K-Ras G12D) [2] = assay: Potency assay: pERK in AsPC-1 cells; assay type: cell-based; settings: Homo sapiens, ASPC1; AsPC-1 cells, K-Ras G12D; read-out: pERK EC50 (AsPC-1 KRAS G12D)
# NCI-H358 (K-Ras G12C) = assay: CellTiter-Glo cell viability assay, H358; assay type: cell-based; settings: Homo sapiens, NCI-H358, 120 h, NCI-H358, K-Ras G12C, 5-day treatment; read-out: H358 Cell Viability IC50
# Summary of the method: (§1)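 Cells already in plates received compound by direct dispensing. After incubation to day 5, plates sat at room temperature roughly 30 minutes, then ATP-based luminescence was measured and values derived from a four-parameter fit of DMSO-normalized data.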
# AsPC-1 (K-Ras G12D) [3] = assay: CellTiter-Glo cell viability assay, AsPC-1; assay type: cell-based; settings: Homo sapiens, ASPC1, 120 h, AsPC-1, K-Ras G12D, 5-day treatment; read-out: AsPC-1 Cell Viability IC50
# Summary of the method: as §1
# KRAS G13D = KRAS G13D (Homo sapiens, UniProt P01116+P62937, G13D); assay: Ras-Raf disruption/FRET/MOA assay, KRAS G13D; assay type: biochemical; settings: disruption of BRAF RBD binding, with Cyclophilin A; read-out: KRAS G13D FRET IC50
# Summary of the method: (§2)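 Buffer 25 mM HEPES pH 7.3, 100 mM NaCl, 5 mM MgCl2, 0.1% BSA, 0.002% Tween20; His6-KRAS-GMPPNP 12.5 nM, CypA 25 μM, GST-BRAF^RBD 50 nM; cpd 10-pt 3-fold from 30 μM; 3 h 25° C; then Eu/APC antibodies 1.5 h; TR-FRET ratio vs DMSO.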
# KRAS G12S = KRAS G12S (Homo sapiens, UniProt P01116+P62937, G12S); assay: Ras-Raf disruption/FRET/MOA assay, KRAS G12S; assay type: biochemical; settings: disruption of BRAF RBD binding, with Cyclophilin A; read-out: KRAS G12S FRET IC50
# Summary of the method: as §2
# KRAS G13C = KRAS G13C (Homo sapiens, UniProt P01116+P62937, G13C); assay: Ras-Raf disruption/FRET/MOA assay, KRAS G13C; assay type: biochemical; settings: disruption of BRAF RBD binding, with Cyclophilin A; read-out: KRAS G13C FRET IC50
# Summary of the method: as §2
# KRAS G12V = KRAS G12V (Homo sapiens, UniProt P01116+P62937, G12V); assay: Ras-Raf disruption/FRET/MOA assay, KRAS G12V; assay type: biochemical; settings: disruption of BRAF RBD binding, with Cyclophilin A; read-out: KRAS G12V FRET IC50
# Summary of the method: as §2
# KRAS G12D = KRAS G12D (Homo sapiens, UniProt P01116+P62937, G12D); assay: Ras-Raf disruption/FRET/MOA assay, KRAS G12D; assay type: biochemical; settings: disruption of BRAF RBD binding, with Cyclophilin A; read-out: KRAS G12D FRET IC50
# Summary of the method: as §2
# KRAS WT = KRAS WT (Homo sapiens, UniProt P01116+P62937); assay: Ras-Raf disruption/FRET/MOA assay, KRAS WT; assay type: biochemical; settings: disruption of BRAF RBD binding, with Cyclophilin A; read-out: KRAS WT FRET IC50
# Summary of the method: as §2
# KRAS G12C = KRAS G12C (Homo sapiens, UniProt P01116+P62937, G12C); assay: Ras-Raf disruption/FRET/MOA assay, KRAS G12C; assay type: biochemical; settings: disruption of BRAF RBD binding, with Cyclophilin A; read-out: KRAS G12C FRET IC50
# Summary of the method: as §2
# KRAS Q61H = KRAS Q61H (Homo sapiens, UniProt P01116+P62937, Q61H); assay: Ras-Raf disruption/FRET/MOA assay, KRAS Q61H; assay type: biochemical; settings: KRAS Q61H; read-out: KRAS Q61H FRET data IC50
# Description: (§3) Disruption of B-Raf Ras-Binding Domain (BRAF^RBD) Interaction with K-Ras by Compounds of the Invention (Also Called a FRET Assay or an MOA Assay)
# (§4) Note—The following protocol describes a procedure for monitoring disruption of K-Ras G12C (GMP-PNP) binding to BRAF^RBD by a compound of the invention. This protocol may also be executed substituting other Ras proteins or nucleotides, such as K-Ras G12D and K-Ras G13D.
# (§5) The purpose of this biochemical assay was to measure the ability of test compounds to facilitate ternary complex formation between a nucleotide-loaded K-Ras isoform and Cyclophilin A; the resulting ternary complex disrupts binding to a BRAF^RBD construct, inhibiting K-Ras signaling through a RAF effector.
# (§6) In assay buffer containing 25 mM HEPES pH 7.3, 0.002% Tween20, 0.1% BSA, 100 mM NaCl and 5 mM MgCl2, tagless Cyclophilin A, His6-K-Ras-GMPPNP, and GST-BRAF^RBD were combined in a 384-well assay plate at final concentrations of 25 μM, 12.5 nM, and 50 nM, respectively. Compound was present in plate wells as a 10-point 3-fold dilution series starting at a final concentration of 30 μM. After incubation at 25° C. for 3 hours, a mixture of anti-His Eu-W1024 and anti-GST allophycocyanin was then added to assay sample wells at final concentrations of 10 nM and 50 nM, respectively, and the reaction incubated for an additional 1.5 hours. […] Compounds that facilitate disruption of a K-Ras:RAF complex were identified as those eliciting a decrease in the TR-FRET ratio relative to DMSO control wells.
# NRAS G12C = target: T1, NRAS G12C (Homo sapiens, UniProt P01111+P62937, G12C); assay: Ras-Raf disruption/FRET/MOA assay, NRAS G12C; assay type: biochemical; settings: NRAS G12C; read-out: NRAS G12C FRET data IC50
# T1 construct: His6
# Summary of the method: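 Disruption of Ras:RAF binding was read as a drop in TR-FRET ratio versus DMSO controls. The buffer was 25 mM HEPES pH 7.3, 0.002% Tween20, 0.1% BSA, 100 mM NaCl and 5 mM MgCl2. Compounds were tested as a 10-point 3-fold dilution series from 30 μM. Detection used 10 nM anti-His Eu-W1024 and 50 nM anti-GST allophycocyanin.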
# NRAS WT = target: T2, NRAS WT (Homo sapiens, UniProt P01111+P62937); assay: Ras-Raf disruption/FRET/MOA assay, NRAS WT; assay type: biochemical; settings: NRAS WT; read-out: NRAS WT FRET data IC50
# T2 construct: His6
# Description: as §3, §4, §5, §6
# NRAS Q61K = target: T3, NRAS Q61K (Homo sapiens, UniProt P01111+P62937, Q61K); assay: Ras-Raf disruption/FRET/MOA assay, NRAS Q61K; assay type: biochemical; settings: NRAS Q61K; read-out: NRAS Q61K FRET data IC50
# T3 construct: His6
# Description: as §3, §4, §5, §6
# NRAS Q61R = target: T4, NRAS Q61R (Homo sapiens, UniProt P01111+P62937, Q61R); assay: Ras-Raf disruption/FRET/MOA assay, NRAS Q61R; assay type: biochemical; settings: NRAS Q61R; read-out: NRAS Q61R FRET data IC50
# T4 construct: His6
# Description: as §3, §4, §5, §6
# T4 sequence (P01111 whole entry Q61R): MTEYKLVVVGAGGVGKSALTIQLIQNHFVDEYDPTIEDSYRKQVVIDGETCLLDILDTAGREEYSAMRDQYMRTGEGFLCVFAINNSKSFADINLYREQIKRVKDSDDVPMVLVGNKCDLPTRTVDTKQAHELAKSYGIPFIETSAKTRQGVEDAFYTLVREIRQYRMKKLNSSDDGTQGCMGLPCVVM
# T4 sequence (P62937 whole entry): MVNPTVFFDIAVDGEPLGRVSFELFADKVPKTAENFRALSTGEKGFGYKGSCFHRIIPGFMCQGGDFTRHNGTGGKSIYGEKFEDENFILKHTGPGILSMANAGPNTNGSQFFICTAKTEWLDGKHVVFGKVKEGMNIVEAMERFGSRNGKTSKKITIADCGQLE
# KRAS G12C, sequence (P01116 1-169 isoform P01116-2 G12C limits assumed): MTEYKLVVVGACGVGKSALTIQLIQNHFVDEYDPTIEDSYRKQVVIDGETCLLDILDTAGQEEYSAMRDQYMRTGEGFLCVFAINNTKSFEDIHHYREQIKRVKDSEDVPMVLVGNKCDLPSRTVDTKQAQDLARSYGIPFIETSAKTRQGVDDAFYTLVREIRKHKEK
# KRAS G12C, sequence (P62937 whole entry): as the sequence (P62937 whole entry) above
# KRAS G13D, sequence (P01116 1-169 isoform P01116-2 G13D limits assumed): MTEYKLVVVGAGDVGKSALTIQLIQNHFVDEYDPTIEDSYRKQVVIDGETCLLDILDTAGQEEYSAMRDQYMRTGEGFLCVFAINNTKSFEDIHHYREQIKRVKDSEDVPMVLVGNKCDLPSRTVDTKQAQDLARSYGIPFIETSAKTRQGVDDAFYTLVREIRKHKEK
# KRAS G13D, sequence (P62937 whole entry): as the sequence (P62937 whole entry) above
# T2 sequence (P01111 whole entry): as the sequence (P01111 whole entry Q61R) above, with R61Q counted along it
# T2 sequence (P62937 whole entry): as the sequence (P62937 whole entry) above
# KRAS G12V, sequence (P01116 1-169 isoform P01116-2 G12V limits assumed): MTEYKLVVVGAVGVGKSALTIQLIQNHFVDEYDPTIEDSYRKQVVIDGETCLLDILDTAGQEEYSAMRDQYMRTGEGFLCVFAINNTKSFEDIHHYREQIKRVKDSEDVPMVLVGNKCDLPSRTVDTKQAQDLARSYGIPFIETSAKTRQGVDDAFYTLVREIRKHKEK
# KRAS G12V, sequence (P62937 whole entry): as the sequence (P62937 whole entry) above
# KRAS Q61H, sequence (P01116 1-169 isoform P01116-2 Q61H limits assumed): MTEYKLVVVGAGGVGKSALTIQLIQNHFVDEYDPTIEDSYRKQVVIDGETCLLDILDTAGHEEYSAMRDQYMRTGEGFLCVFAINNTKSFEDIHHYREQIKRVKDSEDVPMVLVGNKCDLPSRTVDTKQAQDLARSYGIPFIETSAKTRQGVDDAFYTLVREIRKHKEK
# KRAS Q61H, sequence (P62937 whole entry, the tested form may be a part): as the sequence (P62937 whole entry) above
# KRAS G13C, sequence (P01116 1-169 isoform P01116-2 G13C limits assumed): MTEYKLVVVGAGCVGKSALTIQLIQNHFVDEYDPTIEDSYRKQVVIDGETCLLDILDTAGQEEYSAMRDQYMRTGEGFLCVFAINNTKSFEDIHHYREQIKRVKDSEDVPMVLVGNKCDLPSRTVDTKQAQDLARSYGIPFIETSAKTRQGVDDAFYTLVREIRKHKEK
# KRAS G13C, sequence (P62937 whole entry): as the sequence (P62937 whole entry) above
# KRAS G12S, sequence (P01116 1-169 isoform P01116-2 G12S limits assumed): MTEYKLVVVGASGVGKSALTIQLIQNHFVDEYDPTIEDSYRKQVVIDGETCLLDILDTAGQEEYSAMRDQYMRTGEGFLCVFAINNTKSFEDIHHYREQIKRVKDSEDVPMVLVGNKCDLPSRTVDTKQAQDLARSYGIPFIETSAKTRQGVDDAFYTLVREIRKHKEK
# KRAS G12S, sequence (P62937 whole entry): as the sequence (P62937 whole entry) above
# KRAS G12D, sequence (P01116 1-169 isoform P01116-2 G12D limits assumed): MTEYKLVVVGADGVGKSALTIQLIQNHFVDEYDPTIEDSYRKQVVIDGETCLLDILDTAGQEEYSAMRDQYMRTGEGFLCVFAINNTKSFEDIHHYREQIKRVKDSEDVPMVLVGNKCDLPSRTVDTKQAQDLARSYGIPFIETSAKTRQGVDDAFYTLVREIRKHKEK
# KRAS G12D, sequence (P62937 whole entry): as the sequence (P62937 whole entry) above
# T1 sequence (P01111 whole entry G12C): as the sequence (P01111 whole entry Q61R) above, with G12C, R61Q counted along it
# T1 sequence (P62937 whole entry): as the sequence (P62937 whole entry) above
# KRAS WT, sequence (P01116 1-169 isoform P01116-2 limits assumed): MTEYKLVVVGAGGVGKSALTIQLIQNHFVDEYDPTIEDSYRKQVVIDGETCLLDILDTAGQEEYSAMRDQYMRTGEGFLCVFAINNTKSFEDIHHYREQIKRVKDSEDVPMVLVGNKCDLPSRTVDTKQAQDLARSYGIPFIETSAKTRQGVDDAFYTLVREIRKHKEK
# KRAS WT, sequence (P62937 whole entry): as the sequence (P62937 whole entry) above
# T3 sequence (P01111 whole entry Q61K): as the sequence (P01111 whole entry Q61R) above, with R61K counted along it
# T3 sequence (P62937 whole entry): as the sequence (P62937 whole entry) above
SMILES,"ring closure, yield of all isomers ([1]; from CCn1c(-c2cccnc2[C@H](C)OC)c(CC(C)(C)CO)c2cc(-c3csc(C[C@H](NC(=O)OC(C)(C)C)C(=O)N4CCC[C@@H](C(=O)O)N4)n3)ccc21, 12.65 mM, 25.0 °C)","ring closure, yield of all isomers ([1]; from CC(C)(CO)Cc1c(I)[nH]c2ccc(-c3cccc(C[C@H](NC(=O)OC(C)(C)C)C(=O)N4CCC[C@@H](C(=O)O)N4)c3)cc12, 12.8 mM, 0.0 °C)",EC50 (AsPC-1 (K-Ras G12D) [2]),IC50 (NCI-H358 (K-Ras G12C)),IC50 (AsPC-1 (K-Ras G12D) [3]),IC50 (KRAS G13D),IC50 (KRAS G12S),IC50 (KRAS G13C),IC50 (KRAS G12V),IC50 (KRAS G12D),IC50 (KRAS WT),IC50 (KRAS G12C),IC50 (KRAS Q61H),IC50 (NRAS G12C),IC50 (NRAS WT),IC50 (NRAS Q61K),IC50 (NRAS Q61R)
CCn1c(-c2cccnc2[C@H](C)OC)c2c3cc(ccc31)-c1csc(n1)C[C@H](NC(=O)OC(C)(C)C)C(=O)N1CCC[C@H](N1)C(=O)OCC(C)(C)C2,81.1%,,,,,,,,,,,,,,,,
CC1(C)COC(=O)[C@@H]2CCCN(N2)C(=O)[C@@H](NC(=O)OC(C)(C)C)Cc2cccc(c2)-c2ccc3[nH]c(I)c(c3c2)C1,,79.8%,,,,,,,,,,,,,,,
CCn1c(-c2cccnc2[C@H](C)OC)c2c3cc(ccc31)-c1cc(CF)cc(c1)C[C@H](NC(=O)[C@H](C1CCCC1)N1CC[C@]3(CCN(C(=O)[C@@H]4N[C@@H]4C4CC4)C3)C1=O)C(=O)N1CCC[C@H](N1)C(=O)OCC(C)(C)C2 [Compound 321],,,< 5 µM,0.1 to 1 µM,0.01 to 0.1 µM,1 to 10 µM,0.1 to 1 µM,0.1 to 1 µM,0.1 to 1 µM,0.1 to 1 µM,0.1 to 1 µM,0.1 to 1 µM,0.1 to 1 µM,0.1 to 1 µM,0.1 to 1 µM,1 to 10 µM,1 to 10 µM
"CCn1c(-c2cccnc2[C@H](C)OC)c2c3cc(ccc31)-c1csc(n1)C[C@H](NC(=O)[C@H](C(C)C)N(C)C(=O)N1CCC[C@@H](N(C)C(=O)[C@H]3CN3)C1)C(=O)N1CCC[C@H](N1)C(=O)OCC(C)(C)C2 (atropisomer, axis not shown) [Compound 289]",,,< 5 µM,0.01 to 0.1 µM,0.1 to 1 µM,0.1 to 1 µM,0.01 to 0.1 µM,0.1 to 1 µM,0.1 to 1 µM,0.1 to 1 µM,0.01 to 0.1 µM,0.01 to 0.1 µM,0.01 to 0.1 µM,0.01 to 0.1 µM,0.01 to 0.1 µM,0.01 to 0.1 µM,0.01 to 0.1 µM
